Measurements taken from publication PMC8430323, “Microbial Enzymatic Synthesis of Amikacin Analogs With Antibacterial Activity Against Multidrug-Resistant Pathogens” (Frontiers in Microbiology, 2021).

Key:
AAC(6′)-APH(2^″) = molecular target: T1, AAC(6′)-APH(2^″) (Staphylococcus aureus, UniProt P0A0C1); test: UPLC-qTOF-HR-MS of […]'-N-acylation product, structure confirmed by NMR; type: biochemical; details: acyl donor; one-pot with GenN, amikacin 2 mM, SAM 2 mM, 50 mM Tris-HCl pH 7.5, 30 °C, 12 h, enzyme 500 μM
T1 construct: gene aacA-aphD; codon-optimized synthetic gene in pET15b, His-tagged, expressed in E. coli BL21(DE3), Ni-NTA purified; bifunctional enzyme

GenN = molecular target: T2, GenN (Micromonospora echinospora, UniProt Q2MG72); test: UPLC-qTOF-HR-MS of methylation product, structure confirmed by NMR; type: biochemical; details: SAM 2 mM, amikacin 2 mM, 50 mM Tris-HCl pH 7.5, 30 °C, 12 h, enzyme 500 μM
T2 construct: codon-optimized synthetic gene in pJExpress404, His-tagged, expressed in E. coli BL21(DE3), Ni-NTA purified
T2 sequence (Q2MG72 1-321): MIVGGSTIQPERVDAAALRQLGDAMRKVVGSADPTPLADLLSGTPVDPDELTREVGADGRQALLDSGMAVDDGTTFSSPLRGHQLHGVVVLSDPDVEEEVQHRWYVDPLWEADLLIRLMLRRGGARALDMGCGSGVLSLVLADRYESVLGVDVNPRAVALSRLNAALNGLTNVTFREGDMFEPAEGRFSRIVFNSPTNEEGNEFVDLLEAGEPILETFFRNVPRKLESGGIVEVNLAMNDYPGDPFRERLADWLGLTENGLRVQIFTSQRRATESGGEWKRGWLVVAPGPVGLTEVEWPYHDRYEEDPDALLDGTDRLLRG

T1 sequence (P0A0C1 whole entry): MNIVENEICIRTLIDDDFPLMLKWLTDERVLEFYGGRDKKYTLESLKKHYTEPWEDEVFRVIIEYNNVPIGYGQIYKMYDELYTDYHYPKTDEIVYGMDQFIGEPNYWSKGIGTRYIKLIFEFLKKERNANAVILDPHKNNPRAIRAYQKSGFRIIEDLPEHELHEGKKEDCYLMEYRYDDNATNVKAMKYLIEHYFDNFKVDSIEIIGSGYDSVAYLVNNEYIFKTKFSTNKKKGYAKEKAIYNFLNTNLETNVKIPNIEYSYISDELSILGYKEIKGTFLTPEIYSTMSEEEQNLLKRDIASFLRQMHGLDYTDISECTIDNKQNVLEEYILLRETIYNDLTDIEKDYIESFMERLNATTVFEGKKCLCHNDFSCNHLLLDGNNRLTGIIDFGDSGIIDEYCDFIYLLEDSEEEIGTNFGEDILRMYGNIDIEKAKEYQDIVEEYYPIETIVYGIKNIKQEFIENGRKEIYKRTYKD

**Q.** How did the conversion yield (AAC(6′)-APH(2^″)) turn out when `CC(=O)SCCNC(=O)CCNC(=O)[C@H](O)C(C)(C)COP(=O)(O)OP(=O)(O)OC[C@H]1O[C@@H](n2cnc3c(N)ncnc32)[C@H](O)[C@@H]1OP(=O)(O)O` [acetyl-CoA] was run?
**A.** The conversion yield was “Incubation with acetyl-CoA and propionyl-CoA as cosubstrates led to the formation of new UPLC peaks”.

**Q.** With `NCC[C@H](O)C(=O)N[C@@H]1C[C@H](N)[C@@H](O[C@H]2O[C@H](CN)[C@@H](O)[C@H](O)[C@H]2O)[C@H](O)[C@H]1O[C@H]1O[C@H](CO)[C@@H](O)[C@H](N)[C@H]1O` [amikacin] as the compound, how does the conversion yield (GenN) read?
**A.** Its conversion yield is “Amikacin was an excellent substrate for SAM-dependent methylation by GenN”.

**Q.** With `CCC(=O)SCCNC(=O)CCNC(=O)[C@H](O)C(C)(C)COP(=O)(O)OP(=O)(O)OC[C@H]1O[C@@H](n2cnc3c(N)ncnc32)[C@H](O)[C@@H]1OP(=O)(O)O` [propionyl-CoA] as the compound, how does the conversion yield (AAC(6′)-APH(2^″)) read?
**A.** The conversion yield was “Incubation with acetyl-CoA and propionyl-CoA as cosubstrates led to the formation of new UPLC peaks”.
